# Source: paper PMC8175240, “Integrase-derived peptides together with CD24-targeted lentiviral particles inhibit the growth of CD24 expressing cancer cells” (Oncogene, 2021)
# Residues, ends and D or L forms follow the SMILES beside them.
# Columns and labels:
# [1] = tested on: CHO-WBL cells; assay: Chromosomal aberration assay (genotoxicity); type: cell-based, Chinese hamster; settings: CP 2.5, +S9, 3 h treatment, harvest 22 h
# Description: All cells were cultured for 22 h after initiation of INS treatment.
# [2] = Stability test in rat plasma; type: in vitro ADME; settings: for Analyte Remaining %: 10 mg/ml stock into plasma 1:1, LC-MS; for Concentration calculated from LC-MS data: 10 mg/ml stock into plasma 1:1, methanol precipitation, 0.45 µm filtration
# Description: (§1) Analytic HPLC-MS was performed using an Agilent 1260 series Liquid Chromatography/Mass Selective Detector (MSD) equipped with an electrospray interface and a UV diode array detector. Analyses were performed on an ACE C8, 50 × 3.0 mm, 3 µm column, with an isocratic 0.1% formic acid/ACN eluent, at a rate of 1 ml/min over a period of 5 min. UV absorption was measured at 280 nm, 220 nm, and 215–395 nm. MS analysis was performed with ESI (electron spray ionization) with a positive ionization method.
# (§2) Four reaction systems were prepared; INS and INR2 in human plasma, INS and INR2 in rat plasma (Supplementary Table 2). Freshly prepared 10 mg/ml stock solution of the peptides was injected into plasma or PBS solution (1:1). The mixture was diluted with methanol to precipitate the plasma proteins. The samples were filtered through PTFE 0.45 µm filters and run in LC-MS. Samples were taken at the following times: 0, 15, 30, 60, 120, 240, and 480 min and after 24 h.
# [3] = tested on: H1975 lung cancer cells; assay: Cytotoxicity of peptides without lentiviral particles, MTT; type: cell-based, human; settings: peptide alone, three times over ten days
# Description: H1975 lung cancer cells were treated three times over the course of 10 days (on days 2, 4, and 7) with different concentrations of the tested peptides. Following ten days of incubation, cells were analyzed for potential toxicity using a quantitative cell viability test, the MTT assay.
# [4] = Stability test in human plasma; type: in vitro ADME; settings: for Analyte Remaining % / Concentration calculated from LC-MS data: human plasma, 10 mg/ml stock into plasma 1:1, LC-MS; for Concentration calculated from LC-MS data: methanol precipitation, 0.45 µm filtration
# Description: as §1, §2
# [5] = Solubility of IN-derived peptides in rat plasma; type: physicochemical; settings: LC-MS
# Description: as §1, §2
# (§3) Plasma solubility was determined at 0 min and was verified at 60 min (if no degradation was observed).
# [6] = Solubility of IN-derived peptides in human plasma; type: physicochemical; settings: LC-MS
# Description: as §1, §2, §3
# [7] = Solubility of IN-derived peptides in PBS; type: physicochemical; settings: for Solubility: at 0 min, verified at 60 min, LC-MS
# Description: as §1, §2, §3
# [8] = tested on: CD24 expressing cancer cells; type: cell-based, human; settings: abstract
# [9] = tested on: H1975 cells; assay: Cell survival after CD24-targeted lentivirus plus peptide, MTT; type: cell-based, human; settings: Raltegravir added to LV-CD24 plus INS or INR2
# Description: (§4) The cell-killing effect of the system was measured by the MTT3-(4,5-dimethylthiazol-2-yl)-2,5-diphenyltetrazoliumenzymatic assay or by 2-(4-iodophenyl)-3-(4-nitrophenyl)-5-(2,4-disulfophenyl)-2H-tetrazolium (WST-1) assay. Two thousand cultured cells were seeded onto 96-well plates (in culture media, DMEM, or RPMI). After 24 h, different concentrations of the diverse peptides (and inhibitors) were added for 3 h. Thirty MOI of the targeted lentiviral particles were added to the cells and the plates centrifuged for 90 min at 800×g, 20 °C. Three and six days later, this procedure (peptides/inhibitor and LV treatments) was repeated. On the tenth day, cell viability was analyzed either by MTT or by WST-1; the media was replaced by fresh media (100 μl per well) containing 1 mg/ml MTT, and the cells were incubated for 2–4 more hours. MTT-formazan crystals were dissolved by the addition of extraction solution (0.1 N HCl in absolute isopropanol). Absorbance at 570 nm and a reference wavelength of 690 nm was recorded on an automated microplate reader. For WST-1, media was replaced and WST-1 was added directly to the culture wells followed by incubation of 10–60 min at 37 °C. Plates were read by an automated microplate reader by measuring the absorbance of the dye with a wavelength of 450 nm and a reference wavelength of 630 nm.
# [10] = tested on: H1975 lung cancer cells; assay: Microscopic observation of GFP incorporation; type: cell-based, human; settings: 30 MOI LV-CD24 and 25 µM INS with 50 µM Raltegravir; 24 h post-treatment
# Description: Fig. 2 The effect of IN-derived peptides on cell survival. A Schematic illustration of the treatment protocol. B Microscopic observation of the GFP incorporation inhibition by Raltegravir. H1975 lung cancer cells were exposed to 30 MOI LV-CD24 and 25 µM INS with or without the addition of 50 µM Raltegravir. Images were taken 24 h post-treatment. C 2000 Panc-1 (left) and H1975 (right) cells were seeded in 96-well plates and were treated with the different items as described. Cell survival was measured by the enzymatic WST-1 (left) and MTT assays (right). % Survival was calculated as the percentage of living cells remaining after treatment with respect to non-treated cells.
# [11] = tested on: Panc-1 cells; assay: Cell survival after CD24-targeted lentivirus plus peptide, WST-1; type: cell-based, human; settings: Raltegravir added to LV-CD24 plus INS or INR2
# Description: as §4
# [12] = from 5 mg/mL sample (10 mg/ml stock into plasma 1:1), at 0 min, verified at 60 min, methanol precipitation, PTFE 0.45 µm filtration
smiles,measurement,setting,value
"O=P1(N(CCCl)CCCl)NCCCO1 (stereo not shown) [CP, cyclophosphamide monohydrate, reference compound]",% Gaps,[1],4.0%
same,% Structural aberration without gaps,[1],47.0%
same,Cells with endoreduplication (%),[1],3.0%
same,Cells with polyploidy (%),[1],0.0%
same,Cytotoxicity (%),[1]; cell growth inhibition relative to negative control,50%
same,% Structural aberrant cells,"[1]; cells with only gaps not included, *p ≤ 0.05 Fisher's Exact test",35.0* %
CC(C)[C@H](NC(=O)[C@@H](NC(=O)[C@@H](NC(=O)[C@H](CO)NC(=O)[C@@H](NC(=O)[C@H](Cc1ccccc1)NC(=O)[C@H](CC(N)=O)NC(=O)[C@H](CO)NC(=O)CNC(=O)[C@@H](N)Cc1c[nH]c2ccccc12)[C@@H](C)O)[C@@H](C)O)[C@@H](C)O)C(=O)N[C@@H](CCCCN)C(=O)N[C@@H](C)C(=O)O [INR] (H-WGSNFTSTTVKA-OH),Analyte Remaining %,[2]; 0 h,41.8%
same,Concentration calculated from LC-MS data,[2]; 0 h,2090 µg/mL
same,Analyte Remaining %,[2]; 0.25 h,51.1%
same,Concentration calculated from LC-MS data,[2]; 0.25 h,2560 µg/mL
same,Analyte Remaining %,[2]; 0.5 h,34.3%
same,Concentration calculated from LC-MS data,[2]; 0.5 h,1710 µg/mL
same,Analyte Remaining %,[2]; 1 h,43.5%
same,Concentration calculated from LC-MS data,[2]; 1 h,2170 µg/mL
same,Analyte Remaining %,[2]; 2 h,43.6%
same,Concentration calculated from LC-MS data,[2]; 2 h,2180 µg/mL
same,Analyte Remaining %,[2]; 4 h,38.2%
same,Concentration calculated from LC-MS data,[2]; 4 h,1910 µg/mL
same,Analyte Remaining %,[2]; 8 h,35.3%
same,Concentration calculated from LC-MS data,[2]; 8 h,1760 µg/mL
same,Analyte Remaining %,[2]; 24 h,36.9%
same,Concentration calculated from LC-MS data,[2]; 24 h,1840 µg/mL
same,Effect on lung cancer cell viability,[3],no effect
same,Stability,"[4]; both types of sera (rat and human plasma), for the entire 24 h",40%
same,Analyte Remaining %,[4]; 0 h,40.9%
same,Concentration calculated from LC-MS data,[4]; 0 h,2050 µg/mL
same,Analyte Remaining %,[4]; 0.25 h,40.3%
same,Concentration calculated from LC-MS data,[4]; 0.25 h,2020 µg/mL
same,Analyte Remaining %,[4]; 0.5 h,45.3%
same,Concentration calculated from LC-MS data,[4]; 0.5 h,2270 µg/mL
same,Analyte Remaining %,[4]; 1 h,47.3%
same,Concentration calculated from LC-MS data,[4]; 1 h,2370 µg/mL
same,Analyte Remaining %,[4]; 2 h,39.2%
same,Concentration calculated from LC-MS data,[4]; 2 h,1960 µg/mL
same,Analyte Remaining %,[4]; 4 h,41.2%
same,Concentration calculated from LC-MS data,[4]; 4 h,2060 µg/mL
same,Analyte Remaining %,[4]; 8 h,38.3%
same,Concentration calculated from LC-MS data,[4]; 8 h,1910 µg/mL
same,Analyte Remaining %,[4]; 24 h,38.9%
same,Concentration calculated from LC-MS data,[4]; 24 h,1950 µg/mL
same,Stability,"[4]; rat and human plasma, ~4 h incubation",40%
same,Solubility,[5]; % of 5 mg/mL sample,42.6%
same,Solubility,[5]; [12],2.13 mg/mL
same,Solubility,[6]; % of 5 mg/mL sample,44.2%
same,Solubility,[6]; [12],2.21 mg/mL
same,Solubility,[7]; % of 5 mg/mL sample,66.2%
same,Solubility,"[7]; from 5 mg/mL sample (10 mg/ml stock into PBS 1:1), methanol dilution, PTFE 0.45 µm filtration",3.31 mg/mL
same,Solubility (in words),[7]; rat and human plasma,highly soluble
Cc1nnc(C(=O)NC(C)(C)c2nc(C(=O)NCc3ccc(F)cc3)c(O)c(=O)n2C)o1 [Raltegravir],Effect on induction of apoptosis,[8],inhibited the induction of apoptosis
same,Effect on cell death induced by LV plus peptide,[9],successfully suppressed the observed cell death
same,Effect on GFP fluorescence of INS-treated cells,[10],nearly eliminated
same,Effect on cell death induced by LV plus peptide,[11],successfully suppressed the observed cell death
